Consider 39 molecules from US8071600B2, “Derivatives of 4-piperazin-1-yl-4-benzo[B]thiophene suitable for the treatment of CNS disorders” (Otsuka Pharmaceutical Co., Ltd., priority 2005, dated 2011).

The structures appear in SMILES notation. Where a name gives a salt, the structure may show the parent alone.

The target of one data set is T1, Dopamine D2 receptor (Rattus norvegicus, UniProt P61169).
T1 construct: from tissue; host or cells: Wistar rat brain, corpus striatum membranes
T1 sequence (P61169 whole entry): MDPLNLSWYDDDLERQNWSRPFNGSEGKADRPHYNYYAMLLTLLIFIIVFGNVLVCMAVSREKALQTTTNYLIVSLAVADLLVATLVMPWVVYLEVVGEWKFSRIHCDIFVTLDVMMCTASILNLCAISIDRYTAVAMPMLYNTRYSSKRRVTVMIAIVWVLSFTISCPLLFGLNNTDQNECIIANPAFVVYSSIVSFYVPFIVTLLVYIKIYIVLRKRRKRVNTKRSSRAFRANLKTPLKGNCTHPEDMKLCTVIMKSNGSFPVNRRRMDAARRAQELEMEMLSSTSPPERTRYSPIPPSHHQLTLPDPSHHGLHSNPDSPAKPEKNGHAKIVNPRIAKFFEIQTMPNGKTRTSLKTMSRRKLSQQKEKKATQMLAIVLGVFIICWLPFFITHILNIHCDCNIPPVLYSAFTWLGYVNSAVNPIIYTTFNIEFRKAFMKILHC
The data set is described as follows: Dopamine D2 receptor binding assay ([3H]-raclopride). The following applies: Dopamine D2 receptor binding test, rat corpus striatum membrane, Ki calculated from IC50 by Cheng-Prussoff formula. The method, then: 1) Dopamine D2 Receptor Binding Assay
The assay was performed according to the method by Kohler et al. (Kohler C, Hall H, Ogren S O and Gawell L, Specific in vitro and in vivo binding of 3H-raclopride. A potent substituted benzamide drug with high affinity for dopamine D-2 receptors in the rat brain. Biochem. Pharmacol., 1985; 34: 2251-2259).
Wistar male rats were decapitated, the brain was retrieved immediately and corpus striatum was taken out. It was homogenized in 50 mM tris(hydroxymethyl)aminomethane (Tris)-hydrochloric acid buffer (pH 7.4) of a volume 50 times of the weight of the tissue using a homogenizer with a high-speed rotating blade, and centrifuged at 4° C., 48,000×g for 10 minutes. The obtained precipitate was suspended again in the above-described buffer of a volume 50 times of the weight of the tissue and after incubated at 37° C. for 10 minutes, centrifuged in the above-described condition. The obtained precipitate was suspended in 50 mM (Tris)-hydrochloric acid buffer (containing 120 mM NaCl, 5 mM KCl, 2 mM CaCl2, 1 mM MgCl2, pH 7.4) of a volume 25 times of the weight of the tissue and preserved by freezing at −85° C. till it was used for binding assay as a membrane specimen.
The binding assay was performed using 40 μl of the membrane specimen, 20 μl of [^3H]-raclopride (final concentration 1 to 2 nM), 20 μl of a test drug and 50 mM Tris-hydrochloric acid buffer (containing 120 mM NaCl, 5 mM KCl, 2 mM CaCl2, 1 mM MgCl2, pH 7.4) so that the total amount was 200 μl (final dimethylsulfoxide concentration 1%). The reaction was performed at room temperature for 1 hour and terminated by conducting suction filtration with a cell harvester on a glass fiber filter plate. The filter plate made of glass fiber was washed with 50 mM Tris-hydrochloric acid buffer (pH 7.4), and after dried, a microplate liquid scintillation cocktail was added and the radioactivity was measured with a microplate scintillation counter. Radioactivity in the presence of 10 μM (+)-butaclamol hydrochloride was assumed as nonspecific binding.
(§1) IC50 value was calculated from concentration-dependent reaction using a non-linear analysis program. Ki value was calculated from IC50 value using Cheng-Prussoff formula.
With `CC1Oc2ccc(OCCCCN3CCN(c4cccc5sccc45)CC3)cc2NC1=O` (centres unmarked) [Example 144], the Ki is 0.4 nM. Still for that read-out and setting: in the case of `CN1Cc2ccc(OCCCN3CCN(c4cccc5sccc45)CC3)cc2C1=O` [Example 123] it was 0.7 nM; in that of `Cn1cnc2cc(OCCCN3CCN(c4cccc5sccc45)CC3)ccc21` [Example 121], 1.1 nM; in that of `Cn1nc(C(N)=O)cc1OCCCN1CCN(c2cccc3sccc23)CC1` [Example 4, 5-[3-(4-benzo[b]thiophen-4-yl-piperazin-1-yl)propoxy]-1-methyl-1H-pyrazole-3-carboxamide], 1.9 nM. The same measure, in the same setting: in the case of `CCN(C)Cc1ccc(OCCCN2CCN(c3cccc4sccc34)CC2)c(C)c1` [Example 307] it was 0.3 nM.

Another data set deals with T2, Serotonin 5-HT2A receptor (Rattus norvegicus, UniProt P14842).
T2 construct: from tissue; host or cells: Wistar rat brain, frontal cortex membranes
T2 sequence (P14842 whole entry): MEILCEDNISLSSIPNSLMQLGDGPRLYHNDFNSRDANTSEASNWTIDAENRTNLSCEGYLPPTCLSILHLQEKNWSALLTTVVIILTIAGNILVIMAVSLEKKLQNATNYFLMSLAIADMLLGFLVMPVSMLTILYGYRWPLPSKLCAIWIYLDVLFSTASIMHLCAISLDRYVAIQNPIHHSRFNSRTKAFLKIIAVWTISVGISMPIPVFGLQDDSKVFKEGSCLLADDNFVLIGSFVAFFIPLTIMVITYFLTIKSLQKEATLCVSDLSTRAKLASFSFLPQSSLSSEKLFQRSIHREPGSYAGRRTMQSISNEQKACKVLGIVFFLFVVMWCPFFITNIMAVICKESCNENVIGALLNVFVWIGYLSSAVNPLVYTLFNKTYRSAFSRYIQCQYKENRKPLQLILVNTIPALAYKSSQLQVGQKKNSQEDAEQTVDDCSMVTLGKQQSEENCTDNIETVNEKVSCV
The data set is described as follows: Serotonin 5-HT2A receptor binding assay ([3H]-Ketanserin). The following applies: Serotonin 5-HT2A receptor binding test, rat frontal cortex membrane, Ki calculated from IC50 by Cheng-Prussoff formula. The method, then: 2) Serotonin 5-HT2A Receptor Binding Assay
The assay was performed according to the method by Leysen J E et al. (Leysen J E, Niemegeers C J E, Van Nueten J M and Laduron P M. [3H] Ketanserin (R 41 468), a selective 3H-ligand for serotonin 2 receptor binding sites. Mol. Pharmacol., 1982, 21: 301-314).
Wistar male rats were decapitated, the brain was retrieved immediately and frontal cortex was taken out. It was homogenized in 0.25 M sucrose of a volume 10 times of the weight of the tissue using a Teflon glass homogenizer, and centrifuged at 4° C., 1,000×g for 10 minutes. The obtained supernatant was transferred to another centrifuge tube and suspended in 0.25 M sucrose of a volume 5 times of the weight of the tissue and the precipitate was centrifuged in the above-described condition. The obtained supernatant was combined with the supernatant obtained above and adjusted to a volume 40 times of the weight of the tissue with 50 mM Tris-hydrochloric acid buffer (pH 7.4), and centrifuged at 4° C., 35,000×g for 10 minutes. The obtained precipitate was suspended again in the above-described buffer of a volume 40 times of the weight of the tissue and centrifuged in the above-described condition. The obtained precipitate was suspended in the above-described buffer of a volume 20 times of the weight of the tissue and preserved by freezing at −85° C. till it was used for binding assay as a membrane specimen.
The binding assay was performed using 40 μl of the membrane specimen, 20 μl of [^3H]-Ketanserin (final concentration 1 to 3 nM), 20 μl of a test drug and 50 mM Tris-hydrochloric acid buffer (pH 7.4) so that the total amount was 200 μl (final dimethylsulfoxide concentration 1%). The reaction was performed at 37° C. for 20 minutes and terminated by conducting suction filtration with a cell harvester on a glass fiber filter plate.
The filter plate made of glass fiber was washed with 50 mM Tris-hydrochloric acid buffer (pH 7.4), and after dried, a microplate liquid scintillation cocktail was added and the radioactivity was measured with a microplate scintillation counter. Radioactivity in the presence of 10 μM spiperone was assumed as nonspecific binding.
as §1
Consider `CC1Oc2ccc(OCCCCN3CCN(c4cccc5sccc45)CC3)cc2NC1=O` (centres unmarked) [Example 144], for which the Ki is 1.4 nM. On the same count and under the same terms, as for `CN1Cc2ccc(OCCCN3CCN(c4cccc5sccc45)CC3)cc2C1=O` [Example 123], the figure is 1.4 nM; as for `Cn1cnc2cc(OCCCN3CCN(c4cccc5sccc45)CC3)ccc21` [Example 121], 1.5 nM; as for `Cn1nc(C(N)=O)cc1OCCCN1CCN(c2cccc3sccc23)CC1` [Example 4, 5-[3-(4-benzo[b]thiophen-4-yl-piperazin-1-yl)propoxy]-1-methyl-1H-pyrazole-3-carboxamide], 7.7 nM. The same measure, in the same setting: as for `CCN(C)Cc1ccc(OCCCN2CCN(c3cccc4sccc34)CC2)c(C)c1` [Example 307], the figure is 0.7 nM.

Tested on in another data set: not given
Assay: not given
Conditions: not given
`COc1cc(NC=O)cc(C)c1OCCCN1CCN(c2cccc3sccc23)CC1` (as salt: hydrochloride) [Example 354]: the melting point is 247.5 to 253 °C (dec.).

In the case of `CCN(C)Cc1ccc(OCCCN2CCN(c3cccc4sccc34)CC2)c(C)c1` (as salt: hydrochloride) [Example 307], the melting point is 256.5 °C (dec.). The same measure, in the same setting: in the case of `COC(=O)c1cc(OCCCN2CCN(c3cccc4sccc34)CC2)n(C)n1` [Example 1, methyl 5-[3-(4-benzo[b]thiophen-4-yl-piperazin-1-yl)propoxy]-1-methyl-1H-pyrazole-3-carboxylate] it was 109 to 110.5 °C; in that of `Cc1ccc(OCCCN2CCN(c3cccc4sccc34)CC2)cn1` (as salt: hydrochloride) [Example 40], 234 to 236 °C. For the molecule `CCNC(=O)c1cc(OCCCN2CCN(c3cccc4sccc34)CC2)no1` (as salt: hydrochloride) [Example 72], the melting point is 219.5 to 222.5 °C (dec.).

`O=C1Cc2ccc(OCCCCN3CCN(c4cccc5sccc45)CC3)cc2N1` (as salt: hydrochloride) [Example 127] displayed a melting point of 215 to 217 °C. On the same count and under the same terms, as for `CN(C)CCc1ccc(OCCCN2CCN(c3cccc4sccc34)CC2)cc1` (as salt: hydrochloride) [Example 382], the figure is 238.5 °C (dec.); as for `CNC(=O)c1cc(OCCCN2CCN(c3cccc4sccc34)CC2)ncn1` (as salt: hydrochloride) [Example 58], 205 to 209.5 °C; as for `COc1cc(N2CCCC2)cc(C)c1OCCCN1CCN(c2cccc3sccc23)CC1` (as salt: hydrochloride) [Example 1076], 246.5 to 249 °C (dec.). Still for that read-out and setting: in the case of `COc1cc(N2CCCC2=O)cc(CO)c1OCCCN1CCN(c2cccc3sccc23)CC1` (as salt: hydrochloride) [Example 359] it was 144 to 145 °C; in that of `CN1CCOc2cc(OCCCN3CCN(c4cccc5sccc45)CC3)ccc21.Cl`, 248.1 to 249.6 °C. The same measure, in the same setting: in the case of `CCS(=O)(=O)Nc1cc(C)c(OCCCN2CCN(c3cccc4sccc34)CC2)c(OC)c1.Cl` it was 235.5 to 237.5 °C; in that of `CCS(=O)(=O)Nc1ccc(OCCCN2CCN(c3cccc4sccc34)CC2)cc1` (as salt: hydrochloride) [Example 345], 174 to 176 °C. For the molecule `CCN(CC)CCc1ccc(OCCCN2CCN(c3cccc4sccc34)CC2)cc1` (as salt: hydrochloride) [Example 368], the melting point was 224 to 232 °C (dec.). For the molecule `COc1cc(N2CCCCC2)cc(C)c1OCCCN1CCN(c2cccc3sccc23)CC1` (as salt: hydrochloride) [Example 1089], the melting point was 248 to 251 °C (dec.). In the case of `CN1CCN(Cc2ccc(OCCCN3CCN(c4cccc5sccc45)CC3)cc2)CC1` (as salt: hydrochloride) [Example 314], the melting point is 261.5 °C (dec.). Still for that read-out and setting: in the case of `COc1cc(NC=O)cc(C)c1OCCCN1CCN(c2cccc3sccc23)CC1.Cl` it was 247.5 to 253 °C (dec.). On to `CCN(CC)CCNC(=O)c1ccc(OCCCN2CCN(c3cccc4sccc34)CC2)cc1` (as salt: hydrochloride) [Example 160], for which the melting point is 229.5 to 232.5 °C. Still for that read-out and setting: in the case of `CN1CNc2ccc(OCCCN3CCN(c4cccc5sccc45)CC3)cc2C1.Cl` it was 203.1 to 204.4 °C; in that of `COc1cc(N)cc(C)c1OCCCN1CCN(c2cccc3sccc23)CC1` [Example 9, 4-[3-(4-benzo[b]thiophen-4-yl-piperazin-1-yl)-propoxy]-3-methoxy-5-methylaniline], 155 to 158 °C. On the same count and under the same terms, as for `COc1cc(N2CCN(C(C)=O)CC2=O)cc(C)c1OCCCN1CCN(c2cccc3sccc23)CC1` (as salt: hydrochloride) [Example 1079], the figure is 218 to 221.5 °C; as for `CN(C)C(=O)Nc1cc(OCCCN2CCN(c3cccc4sccc34)CC2)n(C)n1.Cl`, 174 to 176.5 °C.

For `COC(=O)N1CCN(c2cc(C)c(OCCCN3CCN(c4cccc5sccc45)CC3)c(OC)c2)C(=O)C1` (as salt: hydrochloride) [Example 1080], the melting point fell in the range of 223 to 228 °C. Still for that read-out and setting: as for `COc1cc(N2CCN(C(C)=O)CC2)cc(CO)c1OCCCN1CCN(c2cccc3sccc23)CC1` (as salt: hydrochloride) [Example 1084], the figure is 217.5 to 221 °C. The same measure, in the same setting: in the case of `CN(C)C(=O)c1csc(OCCCN2CCN(c3cccc4sccc34)CC2)n1` (as salt: hydrochloride) [Example 1113] it was 178 to 182 °C. In the case of `O=C1Nc2cc(OCCCCN3CCN(c4cccc5sccc45)CC3)ccc2CO1` (as salt: hydrochloride) [Example 133], the melting point was 253 to 258 °C (dec.). The same measure, in the same setting: as for `CN(C)C(=O)N1CCC(OCCCN2CCN(c3cccc4sccc34)CC2)CC1` (as salt: hydrochloride) [Example 1110], the figure is 202 to 205 °C.

In turn, `Cl.c1cc(N2CCN(CCCOc3ccc4c(c3)CCN4)CC2)c2ccsc2c1` had a melting point of 222.4 to 223.9 °C.

As to `COc1cc(N2CCN(C(C)=O)CC2)cc(C)c1OCCCN1CCN(c2cccc3sccc23)CC1` (as salt: hydrochloride) [Example 1083], the melting point is 257 to 261 °C (dec.). `CCNC(=O)c1cc(OCCCN2CCN(c3cccc4sccc34)CC2)n(C)n1` (as salt: hydrochloride) [Example 62] gave a melting point of 210.5 to 214.5 °C. The same measure, in the same setting: in the case of `CC(=O)N1CCC(OCCCN2CCN(c3cccc4sccc34)CC2)CC1.Cl` it was 208 to 210 °C; in that of `COc1cc(NC(=O)CN)cc(C)c1OCCCN1CCN(c2cccc3sccc23)CC1` (as salt: hydrochloride) [Example 1060], 268 °C (dec.). The same measure, in the same setting: as for `CN(C)C(=O)Nc1cc(OCCCCN2CCN(c3cccc4sccc34)CC2)n(C)n1.Cl`, the figure is 186 to 187.5 °C. Same read-out and setting: in the case of `COc1cc(N2CCOC2=O)cc(CO)c1OCCCN1CCN(c2cccc3sccc23)CC1` (as salt: hydrochloride) [Example 1071] it was 224 to 226.5 °C (dec.).

What is called Ki is the equilibrium dissociation constant of an inhibitor or competing ligand from its target. In general, melting point refers to the temperature, or range, at which the solid turns liquid.
